Assays:
[1] = Purity by SE-UPLC (% HMW, % Main, % LMW) on storage; assay type: physicochemical; details: stress conditions (40° C. and 45° C.)
Description: To determine the effect of preservatives on high molecular weight (HMW) complex formation for different mAbs formulations, various antibodies were incubated at 40° C. over the course of 3 months with or without tested preservatives.
To determine the effect of preservatives on high molecular weight (HMW) complex formation for different mAbs formulations, various antibodies were incubated at 25° C. over the course of 6 months with or without tested preservatives.

[2] = Compatibility of preservatives with mAb formulations; assay type: physicochemical; details: preservative in mAb formulations, incompatibility seen as turbidity
[3] = Overall storage stability of mAb formulations with preservatives; details: all storage conditions
Description: Storage stability of the Fc-containing proteins were assessed at various temperatures, as will be described in further detail, including at 5° C., 25° C., 40° C., and 45° C., to enable kinetic degradation profiling, if applicable.
The sample formulations with preservatives were compared to the control formulations without preservatives to evaluate the effect of preservatives on protein stability.

OCc1ccccc1 [benzyl alcohol]
mAb aggregation detected by SE-UPLC (in words) [1]: higher mAb aggregation

Cc1cccc(O)c1 [m-cresol]
compatibility with the mAb formulations [2]: not compatible
compatibility with the mAb formulations ([2]; listed as cresol): incompatible

Oc1ccccc1 [phenol]
destabilizing effect of preservative on mAbs (in words) [3]: least destabilization effect
destabilizing effect of preservative on mAbs (in words) ([3]; listed as Phenol): only minimal destabilizing effect

Source: patent US20240366471A1, “MULTIDOSE ANTIBODY DRUG PRODUCTS USING PHENOL OR BENZYL ALCOHOL” (Regeneron Pharmaceuticals, Inc., priority 2023, published 2024)
